Consider six compounds from US9340590B2 (priority 2011, dated 2016).

Like-named read-outs stand apart in the source and are kept apart here. Positions of bridges follow the written chain, without caps; N, C: chain ends. Residues, ends and D or L forms follow the SMILES beside them.

Common to all, as to experiment: cell-based
One test addresses hNav1.7 (Homo sapiens, UniProt Q15858). The format is cell-based. The following applies: IonWorks Quattro, read-out: IWQ Use Nav1.7. A general note: In patch-clamp work, channel activity is measured electrically.
For the next test, the target named is hNav1.3 (Homo sapiens, UniProt Q9NY46). The note with it: IonWorks Quattro, read-out: IWQ Use Nav1.3.
The target of a further test is hNav1.5 (Homo sapiens, UniProt Q14524).
The mark [1] stands for this setting: IonWorks Quattro, use-dependent block, hNav1.5, read-out: IWQ Use Nav1.5.
The mark [2] stands for this setting: use-dependent protocol, hNav1.7.
[3] abbreviates: use-dependent protocol, hNav1.3.
Setting [4] is: IonWorks Quattro, use-dependent protocol, hNav1.5, read-out: IWQ Use Nav1.5.

hNav1.7, sequence (Q15858 whole entry, looked up): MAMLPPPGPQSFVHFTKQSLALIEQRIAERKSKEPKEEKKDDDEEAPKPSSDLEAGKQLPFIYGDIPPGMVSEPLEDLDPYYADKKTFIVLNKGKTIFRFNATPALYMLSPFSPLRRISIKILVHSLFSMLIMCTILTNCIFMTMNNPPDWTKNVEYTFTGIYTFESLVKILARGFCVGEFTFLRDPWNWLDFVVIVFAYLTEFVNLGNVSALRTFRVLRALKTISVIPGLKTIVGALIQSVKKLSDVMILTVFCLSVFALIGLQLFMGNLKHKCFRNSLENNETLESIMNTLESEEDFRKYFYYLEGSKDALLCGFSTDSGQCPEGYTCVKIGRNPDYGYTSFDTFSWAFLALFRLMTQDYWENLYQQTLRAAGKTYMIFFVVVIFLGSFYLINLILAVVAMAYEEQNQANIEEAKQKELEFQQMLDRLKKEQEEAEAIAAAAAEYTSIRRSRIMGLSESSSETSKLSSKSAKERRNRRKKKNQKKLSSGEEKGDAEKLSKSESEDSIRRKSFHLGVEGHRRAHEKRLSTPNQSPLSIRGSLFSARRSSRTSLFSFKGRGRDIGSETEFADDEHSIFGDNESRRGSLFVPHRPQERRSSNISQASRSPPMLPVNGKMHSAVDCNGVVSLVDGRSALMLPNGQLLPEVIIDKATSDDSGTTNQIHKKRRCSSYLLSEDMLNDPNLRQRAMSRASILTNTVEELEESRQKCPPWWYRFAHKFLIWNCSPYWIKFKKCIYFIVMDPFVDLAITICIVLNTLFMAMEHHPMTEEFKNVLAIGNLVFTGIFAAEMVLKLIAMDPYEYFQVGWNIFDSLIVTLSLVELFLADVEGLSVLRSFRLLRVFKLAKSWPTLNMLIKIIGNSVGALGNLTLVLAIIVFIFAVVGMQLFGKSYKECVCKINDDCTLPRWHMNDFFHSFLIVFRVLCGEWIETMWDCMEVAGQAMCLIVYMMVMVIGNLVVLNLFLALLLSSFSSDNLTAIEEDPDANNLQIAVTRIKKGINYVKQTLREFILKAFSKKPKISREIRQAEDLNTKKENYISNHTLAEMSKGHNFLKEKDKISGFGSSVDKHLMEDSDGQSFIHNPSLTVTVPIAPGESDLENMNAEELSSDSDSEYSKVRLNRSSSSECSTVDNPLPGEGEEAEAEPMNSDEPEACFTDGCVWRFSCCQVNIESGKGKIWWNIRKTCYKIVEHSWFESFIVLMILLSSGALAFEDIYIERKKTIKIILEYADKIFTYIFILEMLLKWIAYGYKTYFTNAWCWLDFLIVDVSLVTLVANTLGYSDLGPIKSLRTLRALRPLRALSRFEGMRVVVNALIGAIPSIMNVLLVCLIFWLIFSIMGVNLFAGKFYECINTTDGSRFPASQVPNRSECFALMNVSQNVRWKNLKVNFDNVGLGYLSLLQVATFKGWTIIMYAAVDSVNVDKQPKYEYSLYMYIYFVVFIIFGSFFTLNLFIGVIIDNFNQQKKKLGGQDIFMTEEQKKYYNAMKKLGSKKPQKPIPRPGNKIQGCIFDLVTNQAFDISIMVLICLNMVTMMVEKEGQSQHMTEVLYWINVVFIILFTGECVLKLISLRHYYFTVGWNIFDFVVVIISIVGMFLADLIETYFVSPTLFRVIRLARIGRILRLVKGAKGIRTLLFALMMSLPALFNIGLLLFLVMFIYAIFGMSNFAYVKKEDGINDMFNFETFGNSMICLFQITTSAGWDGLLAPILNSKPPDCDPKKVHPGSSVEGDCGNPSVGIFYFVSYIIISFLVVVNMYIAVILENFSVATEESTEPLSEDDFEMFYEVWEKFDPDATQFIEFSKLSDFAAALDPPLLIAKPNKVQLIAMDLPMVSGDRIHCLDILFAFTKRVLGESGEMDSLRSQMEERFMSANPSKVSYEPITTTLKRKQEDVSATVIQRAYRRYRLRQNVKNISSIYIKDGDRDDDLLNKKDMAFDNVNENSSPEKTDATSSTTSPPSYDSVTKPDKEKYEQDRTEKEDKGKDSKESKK
hNav1.5, sequence (Q14524 whole entry, looked up): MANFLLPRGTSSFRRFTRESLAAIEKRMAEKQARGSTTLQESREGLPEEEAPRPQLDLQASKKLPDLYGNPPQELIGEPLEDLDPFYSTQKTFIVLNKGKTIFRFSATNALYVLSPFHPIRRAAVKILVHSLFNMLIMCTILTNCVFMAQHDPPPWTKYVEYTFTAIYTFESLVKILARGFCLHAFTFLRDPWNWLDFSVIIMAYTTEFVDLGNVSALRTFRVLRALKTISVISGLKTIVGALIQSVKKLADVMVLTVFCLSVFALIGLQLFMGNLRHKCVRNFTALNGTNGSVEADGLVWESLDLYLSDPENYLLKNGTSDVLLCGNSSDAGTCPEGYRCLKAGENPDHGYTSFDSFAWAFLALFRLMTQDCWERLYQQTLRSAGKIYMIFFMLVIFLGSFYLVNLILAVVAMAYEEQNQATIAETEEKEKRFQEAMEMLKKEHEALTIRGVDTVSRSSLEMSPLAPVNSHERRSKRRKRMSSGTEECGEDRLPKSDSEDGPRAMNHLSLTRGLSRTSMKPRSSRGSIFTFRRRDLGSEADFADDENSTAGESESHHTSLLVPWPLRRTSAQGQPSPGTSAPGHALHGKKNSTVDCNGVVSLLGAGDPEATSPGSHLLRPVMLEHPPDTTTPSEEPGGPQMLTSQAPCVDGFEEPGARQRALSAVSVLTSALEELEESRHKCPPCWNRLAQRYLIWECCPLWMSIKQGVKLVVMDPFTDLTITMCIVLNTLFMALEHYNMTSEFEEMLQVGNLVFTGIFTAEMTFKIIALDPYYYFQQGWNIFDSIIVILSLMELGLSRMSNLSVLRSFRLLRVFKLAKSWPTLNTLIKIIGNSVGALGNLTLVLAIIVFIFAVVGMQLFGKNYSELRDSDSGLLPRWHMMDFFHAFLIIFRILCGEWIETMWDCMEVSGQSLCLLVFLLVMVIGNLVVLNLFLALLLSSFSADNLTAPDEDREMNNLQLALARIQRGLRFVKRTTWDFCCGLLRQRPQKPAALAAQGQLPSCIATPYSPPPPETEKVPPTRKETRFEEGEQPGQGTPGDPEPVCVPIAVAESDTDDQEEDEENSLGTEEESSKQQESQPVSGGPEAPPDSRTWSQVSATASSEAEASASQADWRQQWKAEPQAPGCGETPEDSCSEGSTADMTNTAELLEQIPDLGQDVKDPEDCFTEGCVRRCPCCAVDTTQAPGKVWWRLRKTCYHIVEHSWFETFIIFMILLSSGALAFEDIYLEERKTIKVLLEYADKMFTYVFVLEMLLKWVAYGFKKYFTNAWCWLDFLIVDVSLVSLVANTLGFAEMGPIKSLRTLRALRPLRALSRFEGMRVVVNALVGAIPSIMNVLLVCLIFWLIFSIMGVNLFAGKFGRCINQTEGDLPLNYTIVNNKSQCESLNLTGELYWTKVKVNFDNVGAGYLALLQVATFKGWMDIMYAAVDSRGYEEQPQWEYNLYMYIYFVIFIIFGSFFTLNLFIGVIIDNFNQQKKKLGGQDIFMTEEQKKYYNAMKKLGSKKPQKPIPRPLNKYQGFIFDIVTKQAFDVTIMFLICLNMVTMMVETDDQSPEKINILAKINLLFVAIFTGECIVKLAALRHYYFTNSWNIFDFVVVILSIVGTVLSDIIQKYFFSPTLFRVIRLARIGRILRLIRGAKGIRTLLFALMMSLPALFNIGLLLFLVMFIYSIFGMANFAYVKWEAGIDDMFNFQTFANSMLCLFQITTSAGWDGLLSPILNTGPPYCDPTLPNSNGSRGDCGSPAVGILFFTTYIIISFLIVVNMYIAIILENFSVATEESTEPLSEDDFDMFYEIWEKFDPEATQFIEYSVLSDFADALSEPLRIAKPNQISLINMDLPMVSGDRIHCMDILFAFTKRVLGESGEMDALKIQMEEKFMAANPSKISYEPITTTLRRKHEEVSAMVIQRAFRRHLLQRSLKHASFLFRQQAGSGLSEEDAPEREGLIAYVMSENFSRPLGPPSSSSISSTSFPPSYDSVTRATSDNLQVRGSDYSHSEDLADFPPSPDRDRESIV

`CC[C@H](C)[C@@H]1NC(=O)[C@@H]2CSSC[C@@H]3NC(=O)[C@H](CC(=O)O)NC(=O)[C@H](CC(C)C)NC(=O)[C@H](CC(N)=O)NC(=O)[C@@H]4CCCN4C(=O)[C@H](CCCNC(=N)N)NC(=O)[C@H](CSSC[C@H](NC(=O)[C@@H](N)CC(=O)O)C(=O)N[C@@H](CC(C)C)C(=O)NCC(=O)N[C@@H](Cc4ccccc4)C(=O)N[C@@H](CCSC)C(=O)N[C@@H](CCCNC(=N)N)C(=O)N[C@@H](CCCCN)C(=O)N2)NC(=O)[C@H](CSSC[C@@H](C(=O)N[C@@H](CCCCN)C(=O)N[C@@H](Cc2ccc(O)cc2)C(=O)N[C@H](C(=O)N[C@@H](Cc2ccccc2)C(N)=O)C(C)C)NC(=O)[C@H](Cc2c[nH]c4ccccc24)NC(=O)[C@H](CCCCN)NC(=O)[C@H](Cc2c[nH]cn2)NC(=O)[C@H]([C@@H](C)O)NC(=O)[C@H](CCCNC(=N)N)NC(=O)[C@H](CO)NC3=O)NC(=O)[C@H](CCCCN)NC(=O)[C@H](CC(=O)O)NC(=O)[C@H](CC(N)=O)NC(=O)[C@H](CC(=O)O)NC(=O)[C@@H]2CCCN2C1=O` [compound 327] (H-DCLGFMRKCIPDNDKCCRPNLDCSRTHKWCKYVF-NH2; disulfide 2-17, 9-23, 16-30): the IC50 on hNav1.7 (Use) is 1500 nM; on hNav1.3 (Use) it was 630 nM; at hNav1.5 (IonWorks Quattro, Use, read-out: IWQ Use Nav1.5), 13.3 µM.
`CC[C@H](C)[C@@H]1NC(=O)[C@@H]2CSSC[C@@H]3NC(=O)[C@H](C(C)C)NC(=O)[C@H](CC(C)C)NC(=O)[C@H](CC(N)=O)NC(=O)[C@@H]4CCCN4C(=O)[C@H](CCCNC(=N)N)NC(=O)[C@H](CSSC[C@H](NC(=O)[C@@H](N)CC(=O)O)C(=O)N[C@@H](CC(C)C)C(=O)NCC(=O)N[C@@H](CCSC)C(=O)N[C@@H](Cc4ccccc4)C(=O)N[C@@H](CCCNC(=N)N)C(=O)N[C@@H](CCCCN)C(=O)N2)NC(=O)[C@H](CSSC[C@@H](C(=O)N[C@@H](CCCCN)C(=O)N[C@@H](Cc2ccc(O)cc2)C(=O)N[C@H](C(=O)N[C@@H](Cc2ccccc2)C(N)=O)C(C)C)NC(=O)[C@H](Cc2c[nH]c4ccccc24)NC(=O)[C@H](CCCCN)NC(=O)[C@H](Cc2c[nH]cn2)NC(=O)[C@H]([C@@H](C)O)NC(=O)[C@H](CCCNC(=N)N)NC(=O)[C@H](CO)NC3=O)NC(=O)[C@H](CCCCN)NC(=O)[C@H](CC(=O)O)NC(=O)[C@H](CC(N)=O)NC(=O)[C@H](CC(=O)O)NC(=O)[C@@H]2CCCN2C1=O` [compound 611] (H-DCLGMFRKCIPDNDKCCRPNLVCSRTHKWCKYVF-NH2; disulfide 2-17, 9-23, 16-30): the IC50 worked out at 43 nM at hNav1.7 (use-dependent block, hNav1.7); 110 nM at hNav1.3 (use-dependent block, hNav1.3); 13.3 µM on hNav1.5 (setting [1]).
On to `CC[C@H](C)[C@@H]1NC(=O)[C@@H]2CSSC[C@@H]3NC(=O)[C@H](C(C)C)NC(=O)[C@H](CC(C)C)NC(=O)[C@H](CC(N)=O)NC(=O)[C@@H]4CCCN4C(=O)[C@H](CCCNC(=N)N)NC(=O)[C@H](CSSC[C@H](NC(=O)[C@@H](N)CC(=O)O)C(=O)N[C@@H](CC(C)C)C(=O)NCC(=O)N[C@@H](Cc4ccc(C(C)(C)C)cc4)C(=O)N[C@@H](CCSC)C(=O)N[C@@H](CCCNC(=N)N)C(=O)N[C@@H](CCCCN)C(=O)N2)NC(=O)[C@H](CSSC[C@@H](C(=O)N[C@@H](CCCCN)C(=O)N[C@@H](Cc2ccc(O)cc2)C(=O)N[C@H](C(=O)N[C@@H](Cc2ccccc2)C(N)=O)C(C)C)NC(=O)[C@H](Cc2c[nH]c4ccccc24)NC(=O)[C@H](CCCCN)NC(=O)[C@H](Cc2c[nH]cn2)NC(=O)[C@H]([C@@H](C)O)NC(=O)[C@H](CCCNC(=N)N)NC(=O)[C@H](CO)NC3=O)NC(=O)[C@H](CCCCN)NC(=O)[C@H](CC(=O)O)NC(=O)[C@H](CC(N)=O)NC(=O)[C@H](CC(=O)O)NC(=O)[C@@H]2CCCN2C1=O` [compound 687], for which the IC50 at hNav1.7 (setting [2]) was 270 nM; on hNav1.3 (setting [3]) it was 130 nM; against hNav1.5 (IWQ Use Nav1.5), greater than 5 µM.
`CC[C@H](C)[C@@H]1NC(=O)[C@@H]2CSSC[C@@H]3NC(=O)[C@H](C(C)C)NC(=O)[C@H](CC(C)C)NC(=O)[C@H](CC(N)=O)NC(=O)[C@@H]4CCCN4C(=O)[C@H](CCCNC(=N)N)NC(=O)[C@H](CSSC[C@H](NC(=O)[C@@H](N)CC(=O)O)C(=O)N[C@@H](CC(C)C)C(=O)NCC(=O)N[C@@H](C)C(=O)N[C@@H](CC[S+](C)[O-])C(=O)N[C@@H](CCCNC(=N)N)C(=O)N[C@@H](CCCCN)C(=O)N2)NC(=O)[C@H](CSSC[C@@H](C(=O)N[C@@H](CCCCN)C(=O)N[C@@H](Cc2ccc(O)cc2)C(=O)N[C@H](C(=O)N[C@@H](Cc2ccccc2)C(N)=O)C(C)C)NC(=O)[C@H](Cc2c[nH]c4ccccc24)NC(=O)[C@H](CCCCN)NC(=O)[C@H](Cc2c[nH]cn2)NC(=O)[C@H]([C@@H](C)O)NC(=O)[C@H](CCCNC(=N)N)NC(=O)[C@H](CO)NC3=O)NC(=O)[C@H](CCCCN)NC(=O)[C@H](CC(=O)O)NC(=O)[C@H](CC(N)=O)NC(=O)[C@H](CC(=O)O)NC(=O)[C@@H]2CCCN2C1=O` (single isomer, unassigned) [compound 792]: the IC50 on hNav1.7 (use-dependent block, hNav1.7) was greater than 5000 nM; at hNav1.3 (use-dependent block, hNav1.3) it was greater than 5000 nM; on hNav1.5 (setting [1]), 49.8 µM.
On to `CC[C@H](C)[C@@H]1NC(=O)[C@@H]2CSSC[C@@H]3NC(=O)[C@H](C(C)C)NC(=O)[C@H](CC(C)C)NC(=O)[C@H](CC(N)=O)NC(=O)[C@@H]4CCCN4C(=O)[C@H](CCCNC(=N)N)NC(=O)[C@H](CSSC[C@H](NC(=O)[C@@H](N)CC(=O)O)C(=O)N[C@@H](CC(C)C)C(=O)NCC(=O)N[C@@H](CO)C(=O)N[C@@H](Cc4ccccc4)C(=O)N[C@@H](CCCNC(=N)N)C(=O)N[C@@H](CCCCN)C(=O)N2)NC(=O)[C@H](CSSC[C@@H](C(=O)N[C@@H](CCCCN)C(=O)N[C@@H](Cc2ccc(O)cc2)C(=O)N[C@H](C(=O)N[C@@H](Cc2ccccc2)C(N)=O)C(C)C)NC(=O)[C@H](Cc2c[nH]c4ccccc24)NC(=O)[C@H](CCCCN)NC(=O)[C@H](Cc2c[nH]cn2)NC(=O)[C@H]([C@@H](C)O)NC(=O)[C@H](CCCNC(=N)N)NC(=O)[C@H](CO)NC3=O)NC(=O)[C@H](CCCCN)NC(=O)[C@H](CC(=O)O)NC(=O)[C@H](CC(N)=O)NC(=O)[C@H](CC(=O)O)NC(=O)[C@@H]2CCCN2C1=O` [compound 617] (H-DCLGSFRKCIPDNDKCCRPNLVCSRTHKWCKYVF-NH2; disulfide 2-17, 9-23, 16-30), for which the IC50 on hNav1.7 (setting [2]) was 760 nM; on hNav1.3 (setting [3]) it was 1700 nM; at hNav1.5 (setting [4]), 11.9 µM.
On to `CCC[C@@H]1NC(=O)CNC(=O)[C@H](CC(C)C)NC(=O)[C@@H](NC(=O)[C@@H](N)CC(=O)O)CSSC[C@@H]2NC(=O)[C@@H]3CSSC[C@@H](C(=O)N[C@@H](CCCCN)C(=O)N[C@@H](Cc4ccc(O)cc4)C(=O)N[C@H](C(=O)N[C@@H](Cc4ccccc4)C(N)=O)C(C)C)NC(=O)[C@H](Cc4c[nH]c5ccccc45)NC(=O)[C@H](CCCCN)NC(=O)[C@H](Cc4c[nH]cn4)NC(=O)[C@H]([C@@H](C)O)NC(=O)[C@H](CCCNC(=N)N)NC(=O)[C@H](CO)NC(=O)[C@H](CSSC[C@H](NC(=O)[C@H](CCCCN)NC(=O)[C@H](CCCNC(=N)N)NC(=O)[C@H](CC(C)C)NC1=O)C(=O)N[C@@H]([C@@H](C)CC)C(=O)N1CCC[C@H]1C(=O)N[C@@H](CC(=O)O)C(=O)N[C@@H](CC(N)=O)C(=O)N[C@@H](CC(=O)O)C(=O)N[C@@H](CCCCN)C(=O)N3)NC(=O)[C@H](C(C)C)NC(=O)[C@H](CC(C)C)NC(=O)[C@H](CC(N)=O)NC(=O)[C@@H]1CCCN1C(=O)[C@H](CCCNC(=N)N)NC2=O` [compound 637], for which the results for the IC50 on hNav1.7 (setting [2]), at hNav1.3 (setting [3]) and on hNav1.5 (setting [4]) were 95 nM, 710 nM and 8 µM, respectively.
